In patent US12577257B2, “Heterocyclic compounds” (Hoffmann-La Roche Inc., priority 2018, dated 2026):

The compounds below were run against T1, MAGL (recombinant wild-type) (Homo sapiens, UniProt Q99685) (assay: 4-NPA assay: MAGL hydrolysis of 4-nitrophenylacetate, absorbance at 405 nm). Settings: footnote [b]: measured in 4-NPA assay.
T1 sequence (Q99685 1-303): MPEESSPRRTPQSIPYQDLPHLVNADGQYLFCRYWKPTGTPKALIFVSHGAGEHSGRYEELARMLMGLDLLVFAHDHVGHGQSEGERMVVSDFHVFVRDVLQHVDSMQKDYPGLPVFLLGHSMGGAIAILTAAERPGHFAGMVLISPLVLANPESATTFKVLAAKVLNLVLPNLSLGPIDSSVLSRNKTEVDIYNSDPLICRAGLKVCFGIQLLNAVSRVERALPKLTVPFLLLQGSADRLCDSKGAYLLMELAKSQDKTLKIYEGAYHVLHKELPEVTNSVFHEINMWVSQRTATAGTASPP
Assay type: biochemical
Description: (§1) Compounds were profiled for MAGL inhibitory activity by measuring the enzymatic activity of MAGL by following the hydrolysis of 4-nitrophenylacetate resulting in 4-nitrophenol, which absorbs at 405-412 nm (G. G. Muccioli, G. Labar, D. M. Lambert, Chem. Bio. Chem. 2008, 9, 2704-2710). This assay is hereinafter abbreviated “4-NPA assay”.
(§2) The 4-NPA assay was carried out in 384 well assay plates (black with clear bottom, non-binding surface treated, Corning Ref. 3655) in a total volume of 40 μL. Compound dilutions were made in 100% DMSO (VWR Chemicals 23500.297) in a polypropylene plate in 3-fold dilution steps to give a final concentration range in the assay from 25 μM to 1.7 nM. 1 μL compound dilutions (100% DMSO) were added to 19 μL MAGL (recombinant wild-type) in assay buffer (50 mM TRIS (GIBCO, 15567-027), 1 mM EDTA (Fluka, 03690-100 ml)). The plate was shaked for 1 min at 2000 rpm (Variomag Teleshake) and then incubated for 15 min at RT. To start the reaction, 20 μL 4-Nitrophenylacetate (Sigma N-8130) in assay buffer with 6% EtOH was added. The final concentrations in the assay were 1 nM MAGL and 300 μM 4-Nitrophenylacetate. After shaking (1 min, 2000 rpm) and 5 min incubation at RT, the absorbance at 405 nm was measured for a first time (Molecular Devices, SpectraMax Paradigm). A second measurement was then done after incubation for 80 min at RT. From the two measurements, the slope was calculated by subtracting the first from the second measurement.

IC50	Compound
2690 nM	O=C1CO[C@H]2CCN(C(=O)N3CCC4(C3)CN(C(c3ccccc3)c3ccccc3)C4)C[C@H]2N1 (racemic) [Example 20, rac-(4aR,8aS)-6-(2-Benzhydryl-2,6-diazaspiro[3.4]octane-6-carbonyl)hexahydro-2H-pyrido[4,3-b][1,4]oxazin-3(4H)-one]
836 nM	O=C1CO[C@H]2CCN(C(=O)N3CCC4(CC3)CN(S(=O)(=O)c3ccc(F)cc3)CCO4)C[C@H]2N1 (racemic) [Example 21, rac-(4aR,8aS)-6-(4-((4-Fluorophenyl)sulfonyl)-1-oxa-4,9-diazaspiro[5.5]undecane-9-carbonyl)hexahydro-2H-pyrido[4,3-b][1,4]oxazin-3(4H)-one]
539 nM	CC(C)(C)OC(=O)N1CC2(CCN(C(=O)N3CC[C@@H]4OCC(=O)N[C@@H]4C3)C2)C1 (racemic) [Int-1, rac-tert-Butyl 6-((4aR,8aS)-3-oxooctahydro-2H-pyrido[4,3-b][1,4]oxazine-6-carbonyl)-2,6-diazaspiro[3.4]octane-2-carboxylate]
599 nM	O=C1CO[C@H]2CCN(C(=O)N3CCC4(CC3)CN(S(=O)(=O)c3ccccc3)C4)C[C@H]2N1 [Example 39, (4aR,8aS)-6-(2-(Phenylsulfonyl)-2,7-diazaspiro[3.5]nonane-7-carbonyl)hexahydro-2H-pyrido[4,3-b][1,4]oxazin-3(4H)-one]

These compounds were tested against T2, MAGL (Homo sapiens, UniProt Q99685) (assay: MAGL inhibition, Table 1 values with no assay marker (2-AG or 4-NPA assay not stated)). Settings: not given.
T2 sequence (Q99685 1-303): T1 sequence (Q99685 1-303)
Assay type: biochemical
Description: as §1, §2
Alternatively, compounds were profiled for MAGL inhibitory activity by determining the enzymatic activity by following the hydrolysis of the natural substrate 2-arachidonoylglycerol resulting in arachidonic acid, which can be followed by mass spectrometry. This assay is hereinafter abbreviated “2-AG assay”.
The 2-AG assay was carried out in 384 well assay plates (PP, Greiner Cat #784201) in a total volume of 20 μL. Compound dilutions were made in 100% DMSO (VWR Chemicals 23500.297) in a polypropylene plate in 3-fold dilution steps to give a final concentration range in the assay from 12.5 μM to […]. 0.25 μL compound dilutions (100% DMSO) were added to 9 μL MAGL in assay buffer (50 mM TRIS (GIBCO, 15567-027), 1 mM EDTA (Fluka, 03690-100 ml), 0.01% (v/v) Tween. After shaking, the plate was incubated for 15 min at RT. To start the reaction, 10 μL 2-arachidonoylglycerol in assay buffer was added. The final concentrations in the assay was […] and 8 μM 2-arachidonoylglycerol. After shaking and 30 min incubation at RT, the reaction was quenched by the addition of 40 μL of acetonitrile containing 4 μM of d8-arachidonic acid. The amount of arachidonic acid was traced by an online SPE system (Agilent Rapidfire) coupled to a triple quadrupole mass spectrometer (Agilent 6460). A C18 SPE cartridge (G9205A) was used in an acetonitrile/water liquid setup. The mass spectrometer was operated in negative electrospray mode following the mass transitions 303.1→259.1 for arachidonic acid and 311.1→267.0 for d8-arachidonic acid. The activity of the compounds was calculated based on the ratio of intensities [arachidonic acid/d8-arachidonic acid].

Compound	IC50
O=C1CO[C@H]2CCN(C(=O)N3CC4(CC(S(=O)(=O)c5ccc(F)cc5Cl)C4)C3)C[C@H]2N1 [Example 67, (4aR,8aS)-6-(6-((2-chloro-4-fluorophenyl)sulfonyl)-2-azaspiro[3.3]heptane-2-carbonyl)hexahydro-2H-pyrido[4,3-b][1,4]oxazin-3(4H)-one]	67.1 nM
O=C1CO[C@H]2CCN(C(=O)N3CC4(C3)CN(S(=O)(=O)c3ccc(C(F)(F)F)c(Cl)c3)C4)C[C@H]2N1 [Example 68, (4aR,8aS)-6-(6-((3-chloro-4-(trifluoromethyl)phenyl)sulfonyl)-2,6-diazaspiro[3.3]heptane-2-carbonyl)hexahydro-2H-pyrido[4,3-b][1,4]oxazin-3(4H)-one]	357 nM

Continued, values first:

IC50	Compound
214 nM	O=C1CO[C@H]2CCN(C(=O)N3CC4(C3)CN(S(=O)(=O)c3ccc(C(F)(F)F)cc3C(F)(F)F)C4)C[C@H]2N1 [Example 69, (4aR,8aS)-6-(6-((2,4-bis(trifluoromethyl)phenyl)sulfonyl)-2,6-diazaspiro[3.3]heptane-2-carbonyl)hexahydro-2H-pyrido[4,3-b][1,4]oxazin-3(4H)-one]
0.1 nM	COc1cccc(F)c1CC1CC2(C1)CN(C(=O)N1CC[C@@H]3OCC(=O)N[C@@H]3C1)C2 [Example 71, (4aR,8aS)-6-(6-(2-fluoro-6-methoxybenzyl)-2-azaspiro[3.3]heptane-2-carbonyl)hexahydro-2H-pyrido[4,3-b][1,4]oxazin-3(4H)-one]
0.1 nM	O=C1CO[C@H]2CCN(C(=O)N3CC4(CC(Cc5c(O)cccc5F)C4)C3)C[C@H]2N1 [Example 73, (4aR,8aS)-6-(6-(2-fluoro-6-hydroxybenzyl)-2-azaspiro[3.3]heptane-2-carbonyl)hexahydro-2H-pyrido[4,3-b][1,4]oxazin-3(4H)-one]
0.5 nM	O=C1CO[C@H]2CCN(C(=O)N3CC4(CC(Cc5ccccc5O)C4)C3)C[C@H]2N1 [Example 74, (4aR,8aS)-6-(6-(2-hydroxybenzyl)-2-azaspiro[3.3]heptane-2-carbonyl)hexahydro-2H-pyrido[4,3-b][1,4]oxazin-3(4H)-one]
